Assay results published in patent US20020071842A1, “Soluble CD1 compositions and uses thereof” (priority 2000, published 2002).

Legend:
24.8.A hybridoma = assay: Plate-bound mCD1d fusion protein hybridoma stimulation assay (IL-2 ELISA); type: cell-based, mouse; details: 24.8 A NKT hybridoma; plate-bound mCD1d-IgGFc2a fusion protein preincubated with lipid antigen
Outline: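 Protein A plates were loaded with 400-600 ng/well mCD1d fusion protein, then given lipid antigen (40:1 molar ratio to fusion protein unless specified) in PBS pH 7.2 for 24-48 h at 37 °C. After washing, 1×10^5 hybridoma cells/well were added for 16-20 h at 37 °C. Secreted IL-2 measured by sandwich ELISA against a murine IL-2 standard curve.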

VII68 hybridoma = assay: as above; type: cell-based, mouse; details: VII68 diverse TCR hybridoma; plate-bound mCD1d-IgGFc2a fusion protein preincubated with lipid antigen
Outline: (§1)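 Fusion protein (400-600 ng/well) captured on protein A plates; lipid added in PBS pH 7.2, 40:1 default ratio; 24-48 hr 37° C; washed; hybridomas 1×10^5/well, 16-20 hr 37° C; IL-2 ELISA vs standard curve. Some wells: anti-mCD1d 19G11 at 20 μg/ml final.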

KT/23 hybridoma = assay: as above; type: cell-based, mouse; details: KT/23 NKT hybridoma; plate-bound mCD1d-IgGFc2a fusion protein preincubated with lipid antigen
Outline: as §1

24.9.E hybridoma = assay: as above; type: cell-based, mouse; details: 24.9 E NKT hybridoma; plate-bound mCD1d-IgGFc2a fusion protein preincubated with lipid antigen
Outline: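 Protein A plates loaded with 400-600 ng/well mCD1d fusion protein plus lipid antigen (default 40:1 molar ratio), 24-48 hr at 37 °C, washed; hybridomas added at 1×10^5 cells/well for 16-20 hr. Supernatant IL-2 quantified by sandwich ELISA against murine IL-2 standard curve.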

KT/12 hybridoma = assay: as above; type: cell-based, mouse; details: KT/12 NKT hybridoma; plate-bound mCD1d-IgGFc2a fusion protein preincubated with lipid antigen
Outline: as §1

XV104 hybridoma = assay: as above; type: cell-based, mouse; details: XV104 diverse TCR hybridoma; plate-bound mCD1d-IgGFc2a fusion protein preincubated with lipid antigen
Outline: as §1

VIII24 hybridoma = assay: as above; type: cell-based, mouse; details: VIII24 diverse TCR hybridoma; plate-bound mCD1d-IgGFc2a fusion protein preincubated with lipid antigen
Outline: as §1

14S.15.A hybridoma = assay: as above; type: cell-based, mouse; details: 14S.15.A diverse TCR hybridoma; plate-bound mCD1d-IgGFc2a fusion protein preincubated with lipid antigen
Outline: as §1

Vβ/9 hybridoma = assay: as above; type: cell-based, mouse; details: Vβ/9 NKT hybridoma; plate-bound mCD1d-IgGFc2a fusion protein preincubated with lipid antigen
Outline: as §1

DN32D3 hybridoma = assay: as above; type: cell-based, mouse; details: DN32D3 NKT hybridoma; plate-bound mCD1d-IgGFc2a fusion protein preincubated with lipid antigen
Outline: as §1

24.7.C hybridoma = assay: as above; type: cell-based, mouse; details: 24 7.C NKT hybridoma; plate-bound mCD1d-IgGFc2a fusion protein preincubated with lipid antigen
Outline: as §1

XV19 hybridoma = assay: as above; type: cell-based, mouse; details: XV19 diverse TCR hybridoma; plate-bound mCD1d-IgGFc2a fusion protein preincubated with lipid antigen
Outline: as §1

14S.6.A hybridoma = assay: as above; type: cell-based, mouse; details: 14S.6.A diverse TCR hybridoma; plate-bound mCD1d-IgGFc2a fusion protein preincubated with lipid antigen
Outline: as §1

14S.7.N hybridoma = assay: as above; type: cell-based, mouse; details: 14S.7.N diverse TCR hybridoma; plate-bound mCD1d-IgGFc2a fusion protein preincubated with lipid antigen
Outline: as §1

KT/22 hybridoma = assay: as above; type: cell-based, mouse; details: KT/22 NKT hybridoma; plate-bound mCD1d-IgGFc2a fusion protein preincubated with lipid antigen
Outline: as §1

KT/7 hybridoma = assay: as above; type: cell-based, mouse; details: KT/7 NKT hybridoma; plate-bound mCD1d-IgGFc2a fusion protein preincubated with lipid antigen
Outline: as §1

14S.10.C hybridoma = assay: as above; type: cell-based, mouse; details: 14S.10 C diverse TCR hybridoma; plate-bound mCD1d-IgGFc2a fusion protein preincubated with lipid antigen
Outline: as §1

[1] = tested on: human CD1d-restricted T cell clones; assay: Flow cytometric staining with lipid treated multimerized CD1d-Fc aggregates; type: cell-based; details: flow cytometry; human CD1d-Fc/Alexa 488 protein A aggregate, 40:1 lipid to fusion protein, compared with DMSO alone
Protocol: To facilitate binding to CD1 specific T cells for detection by flow cytometry, a highly multimerized form of the CD1d fusion protein was formed using fluorescently labeled protein A molecules. Protein A molecules spontaneously associate in solution at neutral pH with immunoglobulin Fc regions, forming complexes containing four Fc molecules and two protein A molecules (4+2 complexes, reference 2). The human CD1d-Fc fusion protein was incubated with Alexa 488 dye labeled protein A, and the 4+2 complexes purified by size exclusion chromatography on a Pharmacia Superose 6 column using PBS pH 7.2 as a running buffer. The purified 4+2 aggregates were concentrated to 100 μg/ml with ovalbumin as a carrier protein. The CD1d-Fc aggregate was then pre-incubated for 24 to 48 hours at 37° C. with antigenic glycolipids dissolved in DMSO at a 40:1 molar ratio of lipid to fusion protein, or with an equivalent volume of DMSO alone as a negative control. The T cell staining was performed at room temperature or 4° C. for 20 min, at a concentration of 40 μg/ml of the lipid or control treated CD1d-Fc aggregate.
To facilitate binding to CD1 specific T cells for detection by flow cytometry, a highly multimerized form of the CD1d fusion protein is formed using fluorescently labeled protein A molecules. Protein A molecules spontaneously associate in solution at neutral pH with immunoglobulin Fc regions, forming complexes containing four Fc molecules and two protein A molecules (4+2 complexes, Langone, J.J. et al, Molec. and Cell. Biochem, 65(2):159-70 (1985)). The human CD1d-Fc fusion protein was incubated with Alexa 488-dye labeled protein A, and the 4+2 complexes purified by size exclusion chromatography on a Phannacia Superose 6 column using PBS pH 7.2 as a running buffer. The purified 4+2 aggregates are concentrated to 100 μg/ml with ovalbumin as a carrier protein. The CD1d-Fc aggregate is then pre-incubated for 24 to 48 hours at 37° C. with antigenic glycolipids dissolved in DMSO at a 40:1 molar ratio of lipid to fusion protein, or with an equivalent volume of DMSO alone as a negative control. The T cell staining is performed at room temperature or 4° C. for 20 min, at a concentration of 40 μg/ml of the lipid or control treated CD1d-Fc aggregate.
Flow cytometric analysis of a CD1d-restricted T cell clone stained with the multimerized CD1d-Fc fusion protein (abbreviated as “hd(8)-fl”) was performed as follows. Staining with CD1d-Fc treated with lipid antigens dissolved in DMSO was compared with CD1d-Fc treated with DMSO alone as a negative control. The specific lipid antigen used were: aGalCer is α-galactosyl ceramide (KRN7000); aGlcCer is α-glucosyl ceramide; aManCer is α-mannosyl ceramide; bGalCer is β-galactosyl ceramide; Cer is ceramide (acylphytosphingolipid).
Flow cytometric analysis of a series of human T cell clones stained with the multimerized CD1d-Fc fusion protein, treated with α-GalCer or DMSO alone also was performed, including staining of two different CD1d-restricted (“NKT”) T cell clones DN2.B9 and DN1.10B3. Four other T cell clones that are not CD1d-restricted also were stained.

Substance | IL-2 secretion (24.8.A hybridoma) | IL-2 secretion (VII68 hybridoma) | IL-2 secretion (KT/23 hybridoma) | IL-2 secretion (24.9.E hybridoma) | IL-2 secretion (KT/12 hybridoma) | IL-2 secretion (XV104 hybridoma) | IL-2 secretion (VIII24 hybridoma) | IL-2 secretion (14S.15.A hybridoma) | IL-2 secretion (Vβ/9 hybridoma) | IL-2 secretion (DN32D3 hybridoma) | IL-2 secretion (24.7.C hybridoma) | IL-2 secretion (XV19 hybridoma) | IL-2 secretion (14S.6.A hybridoma) | IL-2 secretion (14S.7.N hybridoma) | IL-2 secretion (KT/22 hybridoma) | IL-2 secretion (KT/7 hybridoma) | IL-2 secretion (14S.10.C hybridoma) | staining of CD1d-restricted T cell clones by lipid treated CD1d-Fc aggregate [1]
sphingomyelin | + (“+” indicates 50-250 pg/ml) | 0 (A “0” indicates a mean of less than 50 pg/ml IL-2 was secreted) | 0 (A “0” indicates a mean of less than 50 pg/ml IL-2 was secreted) | 0 (A “0” indicates a mean of less than 50 pg/ml IL-2 was secreted) | 0 (A “0” indicates a mean of less than 50 pg/ml IL-2 was secreted) | 0 (A “0” indicates a mean of less than 50 pg/ml IL-2 was secreted) | 0 (A “0” indicates a mean of less than 50 pg/ml IL-2 was secreted) | + (“+” indicates 50-250 pg/ml) | 0 (A “0” indicates a mean of less than 50 pg/ml IL-2 was secreted) | 0 (A “0” indicates a mean of less than 50 pg/ml IL-2 was secreted) | 0 (A “0” indicates a mean of less than 50 pg/ml IL-2 was secreted) | 0 (A “0” indicates a mean of less than 50 pg/ml IL-2 was secreted) | 0 (A “0” indicates a mean of less than 50 pg/ml IL-2 was secreted) | 0 (A “0” indicates a mean of less than 50 pg/ml IL-2 was secreted) | 0 (A “0” indicates a mean of less than 50 pg/ml IL-2 was secreted) | 0 (A “0” indicates a mean of less than 50 pg/ml IL-2 was secreted) | 0 (A “0” indicates a mean of less than 50 pg/ml IL-2 was secreted) | 
α-glucosyl ceramide [α-GlcCer] |  |  |  |  |  |  |  |  |  |  |  |  |  |  |  |  |  | positive staining
α-mannosyl ceramide [α-ManCer] |  |  |  |  |  |  |  |  |  |  |  |  |  |  |  |  |  | did not stain above background levels
